# Measurements reported in publication PMC12750388, “Coumarin-1,2,3-Triazole Conjugates as Molecular Scaffolds for the Selective Induction of ROS-Driven Apoptosis in Cancer Cells in the Development of Pyruvate Kinase M2 Inhibitors” (ACS Omega, 2025).
# Where “and” joins values, the source holds several entries; their conditions need not be identical. Equal values may be shown once.
# Assays:
# SCC-9 cell line = experiment: MTT cell viability assay, SCC-9; assay type: cell-based, human
# Procedure: (§1) The viability of SCC cell lines and primary human fibroblast cells was evaluated using the MTT assay to determine half maximal inhibitory concentration (IC50). Briefly, cells were grown in triplicate in 96-well plates (5 × 10^3 cells/well) until confluence. Then the medium was removed, fresh medium was added, and the cells were returned to the incubator in the presence of different compounds. DMSO at the same concentrations was used as a 100% cell viability control. After 48 h, cells were incubated with 5 mg/mL MTT reagent (3-(4,5-dimethyl-2-thiazolyl)-2,5-diphenyl-2-H-tetrazolium bromide) (Sigma-Aldrich Co., St. Louis, MO, USA) for 3.5 h. After that, formazan crystals were dissolved in MTT solvent solution (DMSO/methanol 1:1 v/v), and the absorbance at 560 nm was evaluated using an EPOCH microplate spectrophotometer (BioTek Instruments, Winooski, VT, USA) with the background absorbance at 670 nm subtracted. Each of the 12 compounds (7a–7l) was tested at six different concentrations, ranging from 6.25 to 200 μM in cancer and normal cell lines. Control (carboplatin) was tested at six different concentrations ranging from 25 μM to 800 μM in cancer cells and from 50 μM to 1600 μM in normal cells.
# (§2) Half-maximal inhibitory concentration (IC50) values were obtained from the MTT assay of at least three independent replicates through nonlinear regression analysis using GraphPad Prism 5.0 software (Intuitive Software for Science, San Diego, CA, USA). Data were presented as means ± standard deviation (SD). A log dose–response curve (inhibitor vs response) using the least-squares method was used to determine the IC50 and SD from the data. The selectivity index (SI) was calculated as the ratio between the IC50 in normal cells and the IC50 in cancer cells, obtained by dividing the IC50 of normal cells by the IC50 of cancer cells.
# [1] = tested on: Primary Gingival Fibroblast; experiment: MTT cell viability assay, normal cells; assay type: cell-based, human
# Procedure: as §1, §2
# 4T1 = experiment: MTT cell viability assay, 4T1; assay type: cell-based, murine
# HCT116 = experiment: MTT cell viability assay, HCT116; assay type: cell-based, human
# B16–F10 = experiment: MTT cell viability assay, B16–F10; assay type: cell-based, murine
# SCC-9 cells [2] = experiment: Cell cycle and sub-G1 analysis by flow cytometry; assay type: cell-based, human
# Procedure: The interference of 7f in the cell cycle (G1, […], and G2/M) and DNA fragmentation (sub-G1) was assessed by flow cytometry analysis using a Guava Muse Cell Analyzer (Cytek Biosciences, Fremont, CA, USA). DNA staining was conducted using a pH 7.6 propidium iodide buffer composed of 3.4 mM Trizma Hydrochloride (Sigma-Aldrich Co., St. Louis, MO, USA), 10 mM NaCl (Sigma-Aldrich Co., St. Louis, MO, USA), 0.1% (v/v) NP40 (Sigma-Aldrich Co., St. Louis, MO, USA), 700 U/L RNase, and 0.075 mM propidium iodide (Sigma-Aldrich Co., St. Louis, MO, USA). An amount of 1 × 10^5 and 5 × 10^5 SCC-9 cells were seeded in six-well plates for the treatment with the negative control (DMSO) and 7f, respectively. […] Cells were then trypsinized and stained with propidium iodide buffer. DNA content was analyzed by collecting 10,000 events in the aforementioned cytometer. Data were analyzed using Flowing Software (Turku Biosciences, Turku, Finland).
# SCC-9 cells [3] = experiment: ROS-Glo H2O2 assay; assay type: cell-based, human; details: SCC-9, 2 × IC50, 12 and 24 h
# Procedure: The production of reactive oxygen species (ROS) was assessed by the detection of hydrogen peroxide (H2O2) using the ROS-Glo H2O2 assay kit (Promega Corporation, Madison, WI, USA; G8820). […] A plate with wells without cells was used as a control. Cells and cell-free wells remained in treatment at times of interest, and 2 h before completion of the times, well volumes were removed to reduce to 40 μL per well. Then the positive control of menadione (Sigma-Aldrich Co., St. Louis, MO, USA), a polycyclic aromatic ketone based on 1,4-naphthoquinone, was used to treat its respective well, and H2O2 substrate from the kit was added for all treatments, followed by the incubation of the plate for the remaining 2 h. Then the detection solution was added, and the plates remained at room temperature for 20 min, following the reading in the TD 20/20 luminometer (Turner Designs, Sunnyvale, CA, USA). The reading of bioluminescence detected is indicated as arbitrary units (a.u.). Additionally, the cell viability was assessed through pretreatment of cells with 10 mM N-acetyl-L-cysteine (NAC) (Sigma-Aldrich Co., St. Louis, MO, USA) for 2 h. […] At the end of the time, the MTT cell viability assay was performed.
# SCC-9 cells [4] = experiment: Videomicroscopy by time-lapse; assay type: cell-based, human; details: SCC-9, 2 × IC50 (24.58 μM), up to 48 h
# Procedure: Cells were maintained in a controlled chamber containing 5% CO2 and 37 °C. Images were captured every minute and integrated using Framelapse software (Neximo Laboratories, Uttar Pradesh, India).
# PKM2 = biological target: T1, PKM2 (Homo sapiens, UniProt P14618); experiment: LDH-coupled Pyruvate Kinase M2 activity assay; assay type: biochemical
# T1 construct: purchased Sigma-Aldrich Co., St. Louis, MO, USA
# T1 sequence (P14618 whole entry): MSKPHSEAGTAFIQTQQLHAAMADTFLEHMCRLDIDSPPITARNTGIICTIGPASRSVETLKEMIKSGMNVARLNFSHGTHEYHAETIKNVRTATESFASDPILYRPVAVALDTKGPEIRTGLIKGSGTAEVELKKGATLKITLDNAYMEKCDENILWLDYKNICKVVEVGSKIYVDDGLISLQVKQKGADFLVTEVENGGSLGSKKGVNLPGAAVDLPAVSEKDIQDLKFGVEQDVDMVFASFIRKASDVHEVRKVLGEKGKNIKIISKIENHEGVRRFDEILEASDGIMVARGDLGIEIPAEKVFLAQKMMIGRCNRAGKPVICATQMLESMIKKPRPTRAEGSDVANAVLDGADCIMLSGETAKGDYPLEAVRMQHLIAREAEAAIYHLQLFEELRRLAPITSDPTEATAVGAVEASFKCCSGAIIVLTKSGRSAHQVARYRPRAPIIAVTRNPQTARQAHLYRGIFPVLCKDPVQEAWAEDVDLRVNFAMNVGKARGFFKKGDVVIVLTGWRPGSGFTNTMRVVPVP
# Procedure: LDH-coupled Pyruvate Kinase M2 (PKM2) activity assay was performed according to published protocols. For the assay, a pH 7.5 buffer solution composed of 50 mM Tris, 100 mM KCl, and 10 mM MgCl2 was prepared, to which 30 ng of human recombinant PKM2 (Sigma-Aldrich Co., St. Louis, MO, USA), 0.6 mM adenosine diphosphate (ADP), 0.5 mM phosphoenolpyruvate (PEP), 180 μM NADH, 10 μM fructose 1,6-bisphosphate (FBP), and 8 units of LDH were added. PEP was added only right before measurement to start the reaction. The change in absorbance at 340 nm due to oxidation of NADH by LDH was measured from 0 to 30 min using an EPOCH microplate spectrophotometer (BioTek Instruments, Winooski, VT, USA). The activity of PK was defined as % in relation to the indicated control.
# [5] = versus human gingival fibroblast
smiles,measurement,setting,value
"O=C1C=C(OCc2cn(CCCOc3cc(=O)oc4ccccc34)nn2)C(=O)c2ccccc21 [Compound 7f, 2-((1-(3-((2-Oxo-2H-chromen-4-yl)oxy)propyl)-1H-1,2,3-triazol-4-yl)methoxy)naphthalene-1,4-dione]",IC50,"SCC-9 cell line; Homo sapiens, SCC-9, MTT, 48 h",12.3 µM
same,SI SCC-9,SCC-9 cell line; IC50 human gingival fibroblast / IC50 SCC-9,1.85
same,IC50,"[1]; Homo sapiens, Fibroblast, MTT, 48 h, normal cells",22.8 µM
same,Average SI,"[1]; average of SI for SCC-9, SCC-4 and SCC-25 versus gingival fibroblast",2.26
same,IC50,"4T1; Mus musculus, 4T1, MTT, murine breast cancer",7.63 µM
same,SI 4T1,4T1; [5],2.98
same,IC50,"HCT116; HCT-116, MTT, human colon carcinoma",6.72 µM
same,SI HCT116,HCT116; [5],3.38
same,IC50,"B16–F10; Mus musculus, B16-F10, MTT, murine melanoma",4.93 µM
same,SI B16–F10,B16–F10; [5],4.61
same,S-phase arrest versus control (DMSO),"SCC-9 cells [2]; SCC-9, 2 × IC50, 24 h",approximately twice as frequent as in the control group
same,cell cycle S population,"SCC-9 cells [2]; SCC-9, 2 × IC50, 24 h (DMSO 12.33%)",22.99%
same,cell cycle G2/M population,"SCC-9 cells [2]; SCC-9, 2 × IC50, 24 h (DMSO 22.59%)",14.45%
same,cell cycle G1 population,"SCC-9 cells [2]; SCC-9, 2 × IC50, 24 h (DMSO 64.99%)",62.31%
same,Sub-G1 population (DNA fragmentation),"SCC-9 cells [2]; SCC-9, 2 × IC50, 48 h (DMSO 5.04%)",29.84%
same,increase in the sub-G1 population,"SCC-9 cells [2]; SCC-9, 48 h, versus DMSO",5 fold
same,production of hydrogen peroxide (H2O2) / ROS,SCC-9 cells [3],significant increase in ROS after 12 and 24 h
same,proliferation and morphology by video microscopy,SCC-9 cells [4],pronounced inhibition of proliferation
same,PKM2 % of activity relative to control,"PKM2; 0.8 µM 7f, experimental replicates 1-5, LDH-coupled assay, vs DMSO",96.14% and 81.36% and 72.11% and 97.25% and 76.4557%
same,PKM2 % of activity relative to control,"PKM2; 4 µM 7f, experimental replicates 1-5, LDH-coupled assay, vs DMSO",88.82% and 107.0205% and 91.86% and 99.18%
same,remaining activity at 4 µM,"PKM2; 4 µM 7f, experimental replicates 1-5, LDH-coupled assay, vs DMSO, read-out: PKM2 % of activity relative to control",96.2%
same,PKM2 % of activity relative to control,"PKM2; 20 µM 7f, experimental replicates 1-5, LDH-coupled assay, vs DMSO",87.42% and 68.0203% and 47.4026% and 85.71% and 68.03%
same,PKM2 % of activity relative to control,"PKM2; 100 µM 7f, experimental replicates 1-5, LDH-coupled assay, vs DMSO",42.39% and 13.86% and 46.13% and 34.17% and 45.14%
same,IC50,"PKM2; LDH-coupled assay, 0.8 μM to 100 μM, 30 min",55.1 µM
